Results: patent US20260060252A1, “HERBICIDAL COMBINATIONS” (UPL LTD, priority 2018, published 2026)

What was measured:
Format in all cases: in vivo
Details in all cases: clomazone 32, metribuzin 12, sulfentrazone 7.7 Fl oz/A, combination 32 + 7.7 + 12 Fl oz/A
[1] = test system: Greenfox tail; assay: % control of Greenfox tail in Soybean
[2] = test system: Palmer amaranth; assay: % control of Palmer amaranth in Soybean
[3] = test system: Tall morning glory; assay: % control of Tall morning glory in Soybean

| Structure (SMILES) | % control of Greenfox tail in Soybean, Actual ([1]; 14 DAA) | % control of Greenfox tail in Soybean, Actual ([1]; 28 DAA) | % control of Greenfox tail in Soybean, Actual ([1]; 45 DAA) | % control of Palmer amaranth in Soybean, Actual ([2]; 14 DAA) | % control of Palmer amaranth in Soybean, Actual ([2]; 28 DAA) | % control of Palmer amaranth in Soybean, Actual ([2]; 45 DAA) | % control of Tall morning glory in Soybean, Actual ([3]; 14 DAA) | % control of Tall morning glory in Soybean, Actual ([3]; 28 DAA) | % control of Tall morning glory in Soybean, Actual ([3]; 45 DAA) |
| --- | --- | --- | --- | --- | --- | --- | --- | --- | --- |
| CC1(C)CON(Cc2ccccc2Cl)C1=O [Clomazone] | 85% | 56.7% | 32.9% | 60% | 43.3% | 16.4% | 53.3% | 30% | 13% |
| CSc1nnc(C(C)(C)C)c(=O)n1N [Metribuzin, 4-amino-6-(1,1-dimethylethyl)-3-(methylthio)-1,2,4-triazin-5 (4H)-one] | 63.4% | 39.9% | 22.7% | 65% | 50% | 36.1% | 53.3% | 39.6% | 16.4% |
| Cc1nn(-c2cc(NS(C)(=O)=O)c(Cl)cc2Cl)c(=O)n1C(F)F [Sulfentrazone, N-[2,4-dichloro-5-[4-(difluoromethyl)-4,5-dihydro-3-methyl-5-oxo-1H-1,2,4-triazol-1-yl]phenyl]-methane sulfonamide] | 68.5% | 46.6% | 29.7% | 80% | 62% | 39.4% | 66.7% | 42.8% | 22.5% |
